Measured values: patent US6914045B2, “Glycopeptide antibiotics” (Wyeth Holdings Corporation, priority 2001, dated 2005)
Values after ≈ are worked out from the molar mass of the structure shown.

Columns and labels:
Experiment in all cases: in vitro antibacterial evaluation, MIC by broth dilution
Format in all cases: cell-based
[1] = test system: Enterococcus sp.; conditions: broth dilution, 18 hours at 35° C.
Procedure, shortened: (§1)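 MIC, the lowest antibiotic concentration preventing growth, was read across 64-0.06 μg/mL with 5×10^5 CFU/mL inoculum. Method followed NCCLS M7-A2 broth dilution using Mueller-Hinton II; Gram-positive strains covered recent methicillin-, penicillin- and/or vancomycin-resistant clinical isolates.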

[2] = test system: Staphylococcus sp.; conditions: broth dilution, 18 hours at 35° C.
Procedure, shortened: as §1

[3] = test system: Streptococcus sp.; conditions: broth dilution, 18 hours at 35° C.
Procedure, shortened: as §1

[4] = test system: Escherichia coli; conditions: 18 hours at 35° C.

COc1ccc(COCC2OC(OC3C(CO)OC(Oc4ccc(CC5NC(=O)C(C(C)c6ccccc6)NC(=O)CNC(=O)C(CO)NC(=O)C(C(O)C6CNC(=N)N6C6OC(CO)C(O)C(O)C6O)NC(=O)C(C(O)C6CNC(=N)N6)NC5=O)cc4)C(O)C3O)C(O)C(O)C2O)cc1 (stereo not shown) [Example 232]
MIC Enterococcus avium (GC 4558) [1]: 32 µg/mL (≈ 22.6 µM)
MIC Enterococcus faecalis (ATCC 29212) [1]: 32 µg/mL (≈ 22.6 µM)
MIC Enterococcus faecalis (GC 2242) [1]: 16 µg/mL (≈ 11.3 µM)
MIC Enterococcus faecalis (GC 2691) [1]: 32 µg/mL (≈ 22.6 µM)
MIC Enterococcus faecalis (GC 3059) [1]: 32 µg/mL (≈ 22.6 µM)
MIC Enterococcus faecalis (GC 4552) [1]: 32 µg/mL (≈ 22.6 µM)
MIC Enterococcus faecalis (GC 4553) [1]: 32 µg/mL (≈ 22.6 µM)
MIC Enterococcus faecalis (GC 4554) [1]: 32 µg/mL (≈ 22.6 µM)
MIC Enterococcus faecalis (GC 6189) [1]: 64 µg/mL (≈ 45.2 µM)
MIC Enterococcus faecium (GC 2243) [1]: 16 µg/mL (≈ 11.3 µM)
MIC Enterococcus faecium (GC 4556) [1]: 32 µg/mL (≈ 22.6 µM)
MIC Enterococcus faecium (GC 4557) [1]: 4 µg/mL (≈ 2.83 µM)
MIC Enterococcus faecalis (ATCC 29212) ([1]; inoculum 5×10^5 CFU/mL, strain ATCC 29212): 32 µg/mL (≈ 22.6 µM)
MIC Enterococcus faecalis (GC 2242) ([1]; inoculum 5×10^5 CFU/mL, strain GC 2242): 16 µg/mL (≈ 11.3 µM)
MIC Enterococcus faecium (GC 2243) ([1]; inoculum 5×10^5 CFU/mL, strain GC 2243): 16 µg/mL (≈ 11.3 µM)
MIC Enterococcus faecalis (GC 2691) ([1]; inoculum 5×10^5 CFU/mL, strain GC 2691): 32 µg/mL (≈ 22.6 µM)
MIC Enterococcus faecalis (GC 3059) ([1]; inoculum 5×10^5 CFU/mL, strain GC 3059): 32 µg/mL (≈ 22.6 µM)
MIC Enterococcus faecalis (GC 4552) ([1]; inoculum 5×10^5 CFU/mL, strain GC 4552): 32 µg/mL (≈ 22.6 µM)
MIC Enterococcus faecalis (GC 4553) ([1]; inoculum 5×10^5 CFU/mL, strain GC 4553): 32 µg/mL (≈ 22.6 µM)
MIC Enterococcus faecalis (GC 4554) ([1]; inoculum 5×10^5 CFU/mL, strain GC 4554): 32 µg/mL (≈ 22.6 µM)
MIC Enterococcus faecium (GC 4556) ([1]; inoculum 5×10^5 CFU/mL, strain GC 4556): 32 µg/mL (≈ 22.6 µM)
MIC Enterococcus faecium (GC 4557) ([1]; inoculum 5×10^5 CFU/mL, strain GC 4557): 4 µg/mL (≈ 2.83 µM)
MIC Enterococcus avium (GC 4558) ([1]; inoculum 5×10^5 CFU/mL, strain GC 4558): 32 µg/mL (≈ 22.6 µM)
MIC Enterococcus faecalis (GC 6189) ([1]; inoculum 5×10^5 CFU/mL, strain GC 6189): 64 µg/mL (≈ 45.2 µM)
MIC Coagulase Negative Staphylococcus (GC 4547) [2]: 2 µg/mL (≈ 1.41 µM)
MIC Coagulase Negative Staphylococcus (GC 4548) [2]: 2 µg/mL (≈ 1.41 µM)
MIC Coagulase Negative Staphylococcus (GC 4549) [2]: 1 µg/mL (≈ 0.707 µM)
MIC Coagulase Negative Staphylococcus (GC 4551) [2]: 4 µg/mL (≈ 2.83 µM)
MIC Coagulase Negative Staphylococcus (GC 6257) [2]: 2 µg/mL (≈ 1.41 µM)
MIC Staphylococcus aureus (ATCC 29213) [2]: 4 µg/mL (≈ 2.83 µM)
MIC Staphylococcus aureus (GC 1131) [2]: 4 µg/mL (≈ 2.83 µM)
MIC Staphylococcus aureus (GC 3051) [2]: 4 µg/mL (≈ 2.83 µM)
MIC Staphylococcus aureus (GC 3053) [2]: 8 µg/mL (≈ 5.65 µM)
MIC Staphylococcus aureus (GC 4541) [2]: 4 µg/mL (≈ 2.83 µM)
MIC Staphylococcus aureus (GC 4542) [2]: 4 µg/mL (≈ 2.83 µM)
MIC Staphylococcus aureus (GC 4544) [2]: 4 µg/mL (≈ 2.83 µM)
MIC Staphylococcus aureus (GC 4545) [2]: 4 µg/mL (≈ 2.83 µM)
MIC Staphylococcus aureus-SMITH (GC 4543) [2]: 4 µg/mL (≈ 2.83 µM)
MIC Staphylococcus haemolyticus (GC 4546) [2]: 2 µg/mL (≈ 1.41 µM)
MIC Staphylococcus aureus (ATCC 29213) ([2]; strain ATCC 29213): 4 µg/mL (≈ 2.83 µM)
MIC Staphylococcus aureus (GC 1131) ([2]; strain GC 1131): 4 µg/mL (≈ 2.83 µM)
MIC Staphylococcus aureus (GC 3051) ([2]; strain GC 3051): 4 µg/mL (≈ 2.83 µM)
MIC Staphylococcus aureus (GC 3053) ([2]; strain GC 3053): 8 µg/mL (≈ 5.65 µM)
MIC Staphylococcus aureus (GC 4541) ([2]; strain GC 4541): 4 µg/mL (≈ 2.83 µM)
MIC Staphylococcus aureus (GC 4542) ([2]; strain GC 4542): 4 µg/mL (≈ 2.83 µM)
MIC Staphylococcus aureus-SMITH (GC 4543) ([2]; strain GC 4543): 4 µg/mL (≈ 2.83 µM)
MIC Staphylococcus aureus (GC 4544) ([2]; strain GC 4544): 4 µg/mL (≈ 2.83 µM)
MIC Staphylococcus aureus (GC 4545) ([2]; strain GC 4545): 4 µg/mL (≈ 2.83 µM)
MIC Staphylococcus haemolyticus (GC 4546) ([2]; strain GC 4546): 2 µg/mL (≈ 1.41 µM)
MIC Coagulase Negative Staphylococcus (GC 4547) ([2]; strain GC 4547): 2 µg/mL (≈ 1.41 µM)
MIC Coagulase Negative Staphylococcus (GC 4548) ([2]; strain GC 4548): 2 µg/mL (≈ 1.41 µM)
MIC Coagulase Negative Staphylococcus (GC 4549) ([2]; strain GC 4549): 1 µg/mL (≈ 0.707 µM)
MIC Coagulase Negative Staphylococcus (GC 4551) ([2]; strain GC 4551): 4 µg/mL (≈ 2.83 µM)
MIC Coagulase Negative Staphylococcus (GC 6257) ([2]; strain GC 6257): 2 µg/mL (≈ 1.41 µM)
MIC Streptococcus agalactiae (GC 4564) [3]: 2 µg/mL (≈ 1.41 µM)
MIC Streptococcus pneumoniae (ATCC 6301) [3]: 0.5 µg/mL (≈ 0.353 µM)
MIC Streptococcus pneumoniae (GC 1894) [3]: 0.5 µg/mL (≈ 0.353 µM)
MIC Streptococcus pneumoniae (GC 4565) [3]: 1 µg/mL (≈ 0.707 µM)
MIC Streptococcus pyogenes (GC 4563) [3]: 2 µg/mL (≈ 1.41 µM)
MIC Streptococcus pneumoniae (ATCC 6301) ([3]; inoculum 5×10^5 CFU/mL, strain ATCC 6301): 0.5 µg/mL (≈ 0.353 µM)
MIC Streptococcus pneumoniae (GC 1894) ([3]; inoculum 5×10^5 CFU/mL, strain GC 1894): 0.5 µg/mL (≈ 0.353 µM)
MIC Streptococcus pyogenes (GC 4563) ([3]; inoculum 5×10^5 CFU/mL, strain GC 4563): 2 µg/mL (≈ 1.41 µM)
MIC Streptococcus agalactiae (GC 4564) ([3]; inoculum 5×10^5 CFU/mL, strain GC 4564): 2 µg/mL (≈ 1.41 µM)
MIC Streptococcus pneumoniae (GC 4565) ([3]; inoculum 5×10^5 CFU/mL, strain GC 4565): 1 µg/mL (≈ 0.707 µM)
MIC Escherichia coli (ATCC 25922) [4]: >64 µg/mL
MIC Escherichia coli (GC 4559) [4]: 64 µg/mL (≈ 45.2 µM)
MIC Escherichia coli (GC 4560) [4]: 2 µg/mL (≈ 1.41 µM)
